Measurements reported in patent US4992439A, “Pyridazine carboxylic acids and esters” (Bristol-Myers Squibb Company, priority 1990, dated 1991).
Values after ≈ are worked out from the molar mass of the structure shown.

Test system: human platelet aggregation (ADP-induced)
Format: cell-based
Conditions: human platelet rich plasma; ADP final concentration 0.5 mcg/mL; compounds in DMSO; read-out: Inhibition of Human Platelet Aggregation, IC50 vs. ADP
Method: The aggregometer method of Born, C.V.R., J. Physiol., (London), 1962, 162, 67-68, as modified by Mustard, J. F., et al., J. Lab. Clin. Med. 1964, 64, 548-599 was used to assess the in vitro activity of the various compounds as to the inhibition of adenosine diphosphate (ADP) and collagen-induced platelet aggregation. The human volunteer donor's arm is cleansed with 70% ethyl alcohol. A sterile 20 ml syringe and needle are used to withdraw 20 ml of blood. The blood is immediately added to a test tube containing 3.8% sodium citrate to prevent clotting (1 part citrate to 9 parts blood).
Platelet rich plasma (PRP) was separated by centrifugation for 10 minutes at 1000 rpm (140 xg) from citrated (3.8%) human blood. All glassware used for preparation of PRP is silicon treated. ADP in final concentration of 0.5 mcg/mL or 0.05 mL of a collagen suspension prepared according to the method described by Evans, G., et al., J. Exp. Med., 1968, 128, 877-894 was used to induce aggregation. The various compounds tested were dissolved in dimethylsulfoxide (DMSO) so that 5 mcl added to the platelet rich plasma would yield the desired test concentration. Vehicle control trials were done and compared with aggregation induced in platelet rich plasma containing various concentrations of the test compounds. Dose response curves were obtained and Inhibitor Concentration (IC50) values calculated.

| SMILES | IC50 [µg/mL] |
| --- | --- |
| COC(=O)CCCCCCCCn1nc(-c2ccccc2)c(-c2ccccc2)cc1=O [Example 1, Methyl 6-oxo-3,4-diphenyl-1(6H)-pyridazinenonanoate] | 21 (≈ 50.2 µM) |
| O=C(O)CCCCCCCCn1nc(-c2ccccc2)c(-c2ccccc2)cc1=O [Example 2, 6-Oxo-3,4-diphenyl-1(6H)-pyridazinenonanoic acid] | 2.9 (≈ 7.17 µM) |
| COC(=O)CCCCCCCn1nc(-c2ccccc2)c(-c2ccccc2)cc1=O [Example 3, Methyl 6-Oxo-3,4-diphenyl-1(6H)pyridazinyloctanoate] | 7.7 (≈ 19 µM) |
| O=C(O)CCCCCCCn1nc(-c2ccccc2)c(-c2ccccc2)cc1=O [Example 4, 6-Oxo-3,4-diphenyl-1(6H)-pyridazinyloctanoic Acid] | 1.6 (≈ 4.1 µM) |
| COC(=O)COc1cccc(CCn2nc(-c3ccccc3)c(-c3ccccc3)cc2=O)c1 [Example 5, Methyl [3-[2-(1,6-dihydro-6-oxo-3,4-diphenyl-1-pyridazinyl)ethyl]phenoxy]acetate] | 0.75 (≈ 1.7 µM) |
| O=C(O)COc1cccc(CCn2nc(-c3ccccc3)c(-c3ccccc3)cc2=O)c1 [Example 6, [3-[2-(1,6-Dihydro-6-oxo-3,4-diphenyl-1-pyridazinyl)ethyl]phenoxy]acetic Acid] | 1 (≈ 2.34 µM) |
